Residues, ends and D or L forms follow the SMILES beside them. *: point of attachment. PEG28 = NCCOCCOCCOCCOCCOCCOCCOCCOCCOCCOCCOCCOCCOCCOCCOCCOCCOCCOCCOCCOCCOCCOCCOCCOCCOCCOCCOCCOCCC(=O)O; For = O=C*
Assays:
[1] = tested on: human monocytes; assay: Cytokine release assay (ELISA); type: cell-based; conditions: 6 h incubation
Experimental: Phorbol
(§1) 12- m yr ist oyl 13-acetate (P MA , 3 µg/ml) was used as a positive control. All samples were f ixed
(§2) in 1% formaldehyde Hoechst 33258 solution (0.5 µg/ml) was added and cells were k ept on ice
(§3) until analysis using a FACS Canto system. After gating for live cells and granulocytes (human
(§4) cells) or non- lymphocytes (murine cells) in the FSC/SSC plot, rhodamine-positive cells were
(§5) identif ied in a PE/SSC plot, using an unstimulated sample as a reference.
(§6) Human monocytes, after an overnight pre- culture, were incubated f or 6 more hours in 1 ml
(§7) RPMI+10% FCS containing 100 nM F2- 2PEG, 0.1 ng/ml LPS (Sigma- Aldrich), or no stimulus.
All experiments were performed in duplicates. Supernatants were centrif uged and aliq uot s of
150 µl were stored at - 80 °C until cytokine levels were measured with commercially available
ELISA kits (Ready-set-go system, eBiosciences). Cytokine concentrations in supernatants
were measured and calculated based on the standards included wit hin the ELISA kits and as
described by the manufacturer’s instructions. The following k its were used: Human TNFα (88-
analysis. Measured cytok ine levels were normalized to 1 (the average of the two unstimulated

[2] = tested on: human leukocytes; assay: Chemotaxis assay; type: cell-based; conditions: compared with the non-PEGylated effector
Experimental: Human leukocytes were re-suspended in Hank ’s Buffered Saline Solution (HBSS, without
Ca2+, Mg 2+) with 10 mM Hepes pH 7.3 and 0.3% BSA at 10^7 cells/ml. Cells were pre-warmed
at 37°C for 20 min. After adding the effector dilutions in the lower compartment of 24-well plates
(800 µl/well), a Millicell culture plate insert with 5 µm pore size was placed in each well, f ollowed
by immediate addition of 200 µl (2 million) leuk ocytes. In one well, the cells were added without
a f ilter insert, allowing determination of the input number. The plate was incubated at 37°C and
5% CO2 f or 45 min. 5 mM EDTA solution was added and the plate was incubated f or another
10 min at 37 °C. […]
Phorbol
as §1, §2, §3, §4, §5, §6, §7
(§8) All experiments were performed in duplicates. […]

[3] = tested on: human granulocytes; assay: Oxidative burst (dihydro-rhodamine oxidation) assay; type: cell-based; conditions: compared with the non-PEGylated effector
Experimental: Activation of the oxidative burst (phagocyte NADPH oxidase) was measured using a
dihydrorhodamine (DHR, Molecular Probes) oxidation assay, based on a method described
previously1. In brief, 200 µl samples of human, murine or guinea pig leukocytes (1.25x 106
cells/ml in HHBS + 10 mM Hepes, pH 7.3, 0.3% BSA and 5 mM EDTA) were loaded with DHR
and catalase (Sigma-Aldrich) and cytochalasin B (Sigma-Aldrich) were added. Cells were pre-
incubated at 37°C for 10 min followed by the addition of 50 µl of effector dilutions (5x the
intended concentration) in the same buffer and another 15 min of incubation at 37°C. Phorbol
as §1, §2, §3, §4, §5, §6, §7, §8

[4] = tested on: mouse skin; assay: Local skin inflammation model, immune cell infiltration; type: in vivo; conditions: mouse skin, 24 h after subcutaneous injection of 100 nmol in Matrigel, HE sections
Experimental: Animals: Eighth Edition. W ashington, DC: The National Academies Press, 2011) were […]
Committee (LANUV AZ. 87- 51.04.2010.A278). All experiments were performed in the Institute […]
GmbH (Sulzf eld, Germany) were used. Mice were housed in individual ventilated cages under […]
humidity and a 12h dark/light cycle.
Soest, Germany) was given ad libitum. Guinea pigs were housed in conventional open cages in the same way as describe for mice. Animals were allowed to acclimatize to their […]
additional immunohistochemical stainings with antibodies against granulocytes/monocytes

[5] = 100 nM F2-2PEG or 0.1 ng/ml LPS

## CC[C@H](C)[C@H](NC(=O)[C@H](CCSC)NC=O)C(=O)N[C@@H](Cc1ccccc1)C(=O)N[C@@H](CC(C)C)C(=O)NCC(=O)NCC(=O)N[C@@H](CCCCNC(=O)CCOCCOCCOCCOCCOCCOCCOCCOCCOCCOCCOCCOCCOCCOCCOCCOCCOCCOCCOCCOCCOCCOCCOCCOCCOCCOCCOCCOCCN)C(=O)N[C@@H](CCCCNC(=O)CCOCCOCCOCCOCCOCCOCCOCCOCCOCCOCCOCCOCCOCCOCCOCCOCCOCCOCCOCCOCCOCCOCCOCCOCCOCCOCCOCCOCCN)C(=O)O [F2-2PEG] (For-MIFLGGK(PEG28)K(PEG28)-OH)
[1]; 100 nM F2-2PEG
  IL-1β secreted: increased
[1]; [5]
  IL-6 level: not significantly increased
  IL-8 level: not significantly increased
  TNFα level: not significantly increased
[2]
  loss of potency to induce chemotaxis when linked to the PEG chains: 1–2 orders of magnitude
[3]
  loss of potency for neutrophil activation (superoxide production) when linked to the PEG chains: 1–2 orders of magnitude
[4]
  immune cell infiltration at the injection site: clearly showed infiltration by immune cells

— publication PMC5730604
